Laboratory results from paper PMC4949387 (Brain, 2015).

How the values were obtained:
amyloid-β plaques = assay: 18F-florbetapir PET scan in Alzheimer's disease patients; assay type: in vivo, human
amyloid-β [1] = settings: ref Joshi et al., 2012, cited from earlier work
amyloid-β [2] = settings: ref Choi et al., 2009; cited from earlier work
amyloid-β plaque = settings: preliminary clinical data; ref Kung et al., 2012; cited from earlier work
[3] = Alzheimer's disease (n = 3), PET 50–65 min post-injection

SMILES | SUVR Anterior cingulate (amyloid-β plaques; [3]) | SUVR Cortical average (amyloid-β plaques; [3]) | SUVR Frontal cortex (amyloid-β plaques; [3]) | SUVR Occipital cortex (amyloid-β plaques; [3]) | SUVR Parietal cortex (amyloid-β plaques; [3]) | SUVR Posterior cingulate (amyloid-β plaques; [3]) | SUVR Subcortical white matter (amyloid-β plaques; [3]) | SUVR Temporal cortex (amyloid-β plaques; [3]) | 18F-florbetapir scan, visual interpretation (amyloid-β plaques; subject AD01) | 18F-florbetapir scan, visual interpretation (amyloid-β plaques; subject AD02) | 18F-florbetapir scan, visual interpretation (amyloid-β plaques; subject AD03) | Mean cortical-to-cerebellar SUVR (amyloid-β [1]; Alzheimer's disease patients) | Greater SUVR in Alzheimer's disease patients relative to healthy controls (amyloid-β [1]) [%] | Kd (amyloid-β [2]) [nM] | Target-to-background ratio for amyloid-β plaque labelling (amyloid-β plaque)
CNc1ccc(/C=C/c2ccc(OCCOCCOCCF)nc2)cc1 [18F-florbetapir] | 1.28 ± 0.05 | 1.31 ± 0.10 | 1.29 ± 0.13 | 1.12 ± 0.25 | 1.37 ± 0.21 | 1.48 ± 0.11 | 1.62 ± 0.16 | 1.32 ± 0.15 | Positive | Positive | Positive | 1.42 ± 0.24 | 42 | 3.7 | 
CN(C)c1ccc(-c2cn3cc([123I])ccc3n2)cc1 [123I-IMPY, ^123 I-2-(4′-dimethylaminophenyl)-6-iodo-imidazo[1,2-a]pyridine] |  |  |  |  |  |  |  |  |  |  |  |  |  |  | not as robust as that of PET tracers
